Results from patent US20250345433A1, “Drug For Treating Disorders Of An Organ Or Tissue Function And Diseases Accompanied By Such Disorders, And The Method For Obtaining It” (priority 2018, published 2025).

Experiments:
[1] = tested on: male Wistar rats with hemorrhagic stroke; assay: Hemorrhagic stroke (intracerebral hemorrhage) model in rats; assay type: in vivo, rat
Experimental: In the study, male Wistar rats (180-200 g) were used. […] Drug administration was started 1 hour after the pathology simulation and then daily, not earlier than 1 hour before the behavioral tests.
This method involves the double introduction of autologous blood into the specified structure of the brain of animals. The hemorrhagic stroke simulated in this way in rats in localization corresponds to intracerebral hemorrhages that occur in humans when the lenticularity arteries rupture. The total volume of hematoma in animals corresponds to approximately 40-50 ml in terms of human body weight.

[2] = tested on: children with hyperactivity; assay: ADHD/hyperkinetic disorder in children vs. Piracetam (SNAP-IV, TOVA, fine motor); assay type: in vivo, human
Excerpt: Materials and methods of examination. The study included 57 children aged 6 to 9 years (40 boys and 17 girls) who attended day care centers and elementary schools of secondary schools.
• 1. The presence of clinical signs of hyperactivity that meet the criteria of ICD-10 (F 90); 2. Age-6-9 years; • 3. Intellectual indicators are not lower than the average on the Wechsler scale (more than 90 points).
Children with behavioral disorders due to other mental disorders were excluded from the study. For 2 months, the main group of children (n=30) with clinical signs of GH received monotherapy for the claimed medicament in 2 tablet 3 times a day. Children from the control group, similar to the main group by clinical signs, sex and age (n=27), were administered Piracetam in standard age doses for the same period.
The assessment of the severity of GH according to the criteria of attention disorder, hyperactivity and impulsivity in the examined children was carried out using the SNAP-IV scale (Swanson J., 1992). The psychophysiological test TOVA (The Test of Variables of Attention), allowed to assess the degree of attention disorders (omissions of significant stimuli) and impulsivity (false presses of a button), information processing speed (reaction time) in relation to standard indicators (Greenberg F M, Waldman I D, 1993). The child's fine motor skills were evaluated using tests from the battery of A. R. Luria (1973), selected by testing on these age groups with the development of criteria for scoring points Zh. M. Glozman, et al. (2006).
The results of the study. At the first stage of the study, using the SNAP-IV scale (Swanson J., 1992) in children of the main and control groups, an initial assessment of the severity of GH was carried out separately for each of the criteria (attention disorder, hyperactivity and impulsivity). Repeated similar assessment was carried out after a two-month course of therapy with the declared Drug in the main group and Piracetam therapy in the control group. The obtained indicators were compared with statistical processing (Table 28).
The computer-aided testing of TOVA (“Test of Variables of Attention”) was represented by three groups of tests, which allow judging the degree of attention disorder (missing significant stimuli), impulsivity (false pressing a button), information processing speed (reaction time). Baseline indicators of children with GH before treatment were compared with those of children of the main group (treatment with the claimed Drug) and indicators of children of the control group (Piracetam therapy) after a two-month course of treatment.

SMILES	decrease of the area of the hemorrhagic lesion ([1]; 7th day compared with the 3rd day)	total time spent in the dark compartment, passive avoidance reaction, M (QI; Q3) ([1]; 7th day of the study)	difference in motor preference indices ([1]; compared to negative test (Preparation 4))	children with increase in disinhibition, excitability ([2]; 2 months)	children with sleep disturbance ([2]; 2 months)	number of children with increase in disinhibition, excitability ([2]; 2 months, n = 27)	number of children with sleep disturbance ([2]; 2 months, n = 27)	TOVA false alarm ([2]; First half of the test, after treatment, before 15.3 ± 2.2)	TOVA Omissions of significant incentives ([2]; First half of the test, after treatment, before 19.1 ± 2.4)	TOVA response time ([2]; First half of the test, after treatment, before 795 ± 103)	TOVA false alarm ([2]; The second half of the test, after treatment, before 29.2 ± 3.3)	TOVA Omissions of significant incentives ([2]; The second half of the test, after treatment, before 29.5 ± 3.3)	TOVA response time ([2]; The second half of the test, after treatment, before 741 ± 126)	Total mark of fine motor quality ([2]; after treatment, before 2.24 ± 0.21)	SNAP-IV impulsivity ([2]; after two-month treatment, before 2.40 ± 0.28)	SNAP-IV hyperactivity ([2]; after two-month treatment, before 2.64 ± 0.29)	SNAP-IV disorder of attention ([2]; after two-month treatment, before 2.76 ± 0.31)
COCCOC(=O)C1=C(C)NC(C)=C(C(=O)OC(C)C)C1c1cccc([N+](=O)[O-])c1 (centres unmarked) [Nimodipine, nimodipine]	16.7%	171.00 (163.00; 175.00) s	24.22%	–	–	–	–	–	–	–	–	–	–	–	–	–	–
NC(=O)CN1CCCC1=O [Piracetam]	–	–	–	11.1%	26%	3	7	12.6 ± 3.1%	13.5 ± 1.4 %	745 ± 87 ms	20.5 ± 2.9%	16.9 ± 2.9 %	665 ± 77 ms	1.62 ± 0.16	2.36 ± 0.20	2.46 ± 0.11	2.52 ± 0.13
